Measured values taken from patent US20050064001A1, “Multi-layer adjuvants for controlled delivery of agro-materials into plant tissues” (priority 2001, published 2005).

Columns and labels:
[1] = tested on: Citrus Lemon Urika chlorotic foliage; assay: Biological activity of iron sprayed on chlorotic foliage (leaf color, chlorophyll, iron content, leaf burns); assay type: in vivo; settings: for Leaf Color: score 1 yellow, 2 light green, 3 vigorously green leaves
Excerpt: Effect of Ferri-Vant (Multi-Layer Adjuvant Coated Fe2(SO4)3 on the Biological Activity of Iron Sprayed on Citrus Lemon Urika Chlorotic Foliage
The Ferri-Vant effect was compared with the untreated control, Fe2(SO4)3 sprayed alone and Fe2(SO4)3 treated with the surfactant Silwet^R L-77. Ten leaves from five trees sprayed for each treatment were sampled and scored for green color. The scoring was based as follows: 1—yellow leaves; 2—light green leaves; 3—vigorously green leaves. Chlorophyll level was determined spectrophotometrically as reported by Moran [Moran, R., Plant Physiol. 69:1376-1381 […]]. Iron content was obtained using the ICP system and leaf burns were visually detected.

[2] = tested on: Citrus Grandis isolated cuticles; assay: Penetration of phosphorous (32P) through isolated cuticles; assay type: in vitro ADME; settings: 60% relative humidity, 25° C.
Experimental: Effect of MKP-Nutri-Vant^R I on the Percent of Penetration of Phosphorous (^32P) Through Citrus Grandis Isolated Cuticles
(§1) The experiment was carried out for three weeks in a controlled shaking chamber set at 60% relative humidity and 25° C. The values are calculated from the transformation formula −ln(1−Mt/Mo). Mt is the accumulation of radioactivity penetrated in each time period tested; Mo is the total radioactivity applied to the isolated cuticle, based on Schönherr and Riederer [Schonherr, J. and M. Riederer, Plant Cell Environ. […] The values are the means of at least 20 replicates ±S.E.

Citrus Grandis leaves = assay: Penetration of phosphorous (32P) into leaves; assay type: in vitro ADME; settings: 60% relative humidity, 25° C.
Experimental: as §1
Effect of MKP-Nutri-Vant II on the Percent of Penetration of Phosphorous (^32P) into Citrus Grandis Leaves
The experiment was carried out for two weeks in a controlled shaking chamber set at 60% relative humidity and 25° C. All the details are similar to those in the previous table.

SMILES	Leaf Color ([1]; day 0)	Leaf Color ([1]; day 2)	Iron Content at day4 ([1]; day 4, leaves, ICP system) [mg/g]	Leaf Color ([1]; day 4)	Chlorophyll level at day 4, Chl. A ([1]; day 4, spectrophotometric) [mg/sq. cm leaf area]	Chlorophyll level at day 4, Chl. B ([1]; day 4, spectrophotometric) [mg/sq. cm leaf area]	Leaf Color ([1]; day 10)	% Penetration of 32P ([2]; 0 hours, mean of at least 20 replicates ±S.E.) [%]	% Penetration of 32P ([2]; 24 hours, mean ±S.E.) [%]	% Penetration of 32P ([2]; 48 hours, mean ±S.E.) [%]	% Penetration of 32P ([2]; 96 hours, mean ±S.E.) [%]	% Penetration of 32P ([2]; 168 hours, mean ±S.E.) [%]	% Penetration of 32P ([2]; 336 hours, mean ±S.E.) [%]	% Penetration of 32P ([2]; 504 hours, mean ±S.E.) [%]	% Penetration of 32P (Citrus Grandis leaves; 0 hours) [%]	% Penetration of 32P (Citrus Grandis leaves; 48 hours) [%]	% Penetration of 32P (Citrus Grandis leaves; 96 hours) [%]	% Penetration of 32P (Citrus Grandis leaves; 168 hours) [%]	% Penetration of 32P (Citrus Grandis leaves; 336 hours) [%]
O=S(=O)([O-])[O-].O=S(=O)([O-])[O-].O=S(=O)([O-])[O-].[Fe+3].[Fe+3] [Fe2(SO4)3 alone, Fe2(SO4)3]	1	1	0.61	1.3 ± 0.4	2.8	1.2	1.2 ± 0.4	–	–	–	–	–	–	–	–	–	–	–	–
O=P([O-])(O)O.[K+] [MK^32P alone, Monopotassium phosphate]	–	–	–	–	–	–	–	0	2.6 ± 0.8	3.4 ± 1.1	5.7 ± 1.4	6.3 ± 1.9	7.5 ± 1.6	7.9 ± 1.9	0	3.1 ± 0.8	4.7 ± 0.6	5.5 ± 0.6	6.4 ± 0.4
